Test system: bioluminescent Salmonella tester strains (his- cells)

In the case of `[N-]=[N+]=[N-]` [NaN, sodium azide], the “bioluminescent revertants after independent exposure (mutagenicity)” value was “detection of bioluminescent revertants”.
